Several values for one entry are separate records, joined by “and”; a condition that tells them apart may be missing. Equal values may be shown once. Read-outs that look alike come from different tables or passages of the source.
Legend:
[1] = biological target: T1, BTK^KD and cIAP1^BUCR1 ternary complex (Homo sapiens, UniProt Q06187+Q13490); experiment: Biolayer interferometry (BLI) ternary complex formation; assay type: binding
T1 construct: BTK^KD (aa384-659) were expressed and purified as previously described; cIAP1^BUCR1 (aa260-618), and BTK^KD (aa384-659) were expressed and purified as previously described; biotin / BAP (only when BTK^KD~BCCov was the sensor ligand); made in house; host or cells: BTK^KD: SF9 insect cells; cIAP1^BUCR1: E. coli BL21-DE3
Protocol: We performed biolayer interferometry (BLI) with an OctetRED384 system (Data Acquisition Version 9.0.0.49) as described previously. […] Ligands were loaded onto streptavidin biosensors (ForteBio, 18-5019) for 120 s, washed in Octet buffer for 200 s, quenched with 50 μM d-biotin (Invitrogen) for 120 s, and washed in Octet buffer for 500 s. […] Excess compound was desalted using a Zeba Spin Desalting Column (Cat. #89882). The preformed binary complex was then dipped into varying concentrations of analyte diluted in Octet buffer for 300 s to determine kon, followed by a wash for 500 s to determine koff. Binding kinetics were calculated and plotted using BiaEvaluation Software (version 4.1.1). Cooperativity (α) was determined by calculating the ratio of binary Kd to ternary complex Kd.

BTK^FL = biological target: T2, BTK^FL (Homo sapiens, UniProt Q06187+Q13490); experiment: Expi293 time-dependent degradation of BTK^FL; assay type: cell-based; settings: 5 µM; for BTK^FL (WT) blot signal normalized to time 0: replicates
T2 construct: we used a full-length BTK (aa1-659) with a C terminal Tobacco Etch Virus protease (TEV) site; expressed in transfected cells; host or cells: Expi293 (HEK293)
Protocol: Gibco Expi293 cell line Transfection Kit (Cat.# A14524) was cultured according to the manufacturers conditions. Cells were grown at 37 °C with 5% CO2 to 4 × 10^6 cells/mL using an orbital shaker set to 95 RPM. Next cells were split to 2 × 10^6 cells/mL and transfected with plasmid DNA at a 1 µg/mL final concentration in Optimem (Gibco 31985070) using the Expifectamine 293 transfection reagent according to manufacturer’s conditions. After approximately 18 h, enhancers 1 and 2 (provided with kit). Viability was typically about 85%. When cIAP1^FL was transfected, it was detected via α-cIAP1 antibody there was typically some autoubiquitination detected, and thus often appeared as a laddered or smeared band via western blotting. When BTK^FL variants were transfected, they were detected using anti-BTK antibody (D3H5).
For covalent modification detection assays, the compound was added to Expi293 cells after enhancer treatment. At each timepoint 10 mL of cells were harvested, rapidly cooled to 4 °C in an ice bath, and centrifuged at 100 x g at 4 °C for 5 min. The pellet was washed twice with ice-cold PBS, snap-frozen in liquid nitrogen, and stored at −80 °C. Each pellet was resuspended in 0.1 mL ice-cold RIPA Buffer supplemented with 40 µM BCNC (to outcompete any remaining BCCov), protease inhibitor, and benzonase, and sonicated with 10 brief blasts at power 20. Lysate was centrifuged at 15 K x g for 20 min at 4 °C and prepared for western blotting as detailed above. When samples were evaluated for covalent adduct formation, a purification step was required. Briefly, the ~1 mL of clarified lysate was added to 9 mL of FLAG binding buffer (25 mM HEPES 7.5, 300 mM NaCl, 10% glycerol). These samples were incubated with 250 µL of anti-FLAG M2 affinity resin (Millipore-Sigma Cat. # A2220) for 3 h at 4 °C with gentle nutation. Samples were washed via gravity column filtration and eluted with 0.2 mg/ml FLAG Peptide (DYKDDDDK, CPC Scientific Peptide Company). Each sample was concentrated to 0.1 mg/mL using an Amicon Ultra-15 Centrifugal filter with a 50 kDa MWCO (Millipore-Sigma Cat. # UFC905024). Details on mass spectrometry analysis are below.

BTK = biological target: T3, BTK (Homo sapiens, UniProt Q06187+Q13490); experiment: THP-1 dose-dependent degradation of endogenous BTK; assay type: cell-based; settings: replicates
T3 construct: a THP-1 cell line which natively expresses both BTK and cIAP1; host or cells: THP-1
Protocol: Human monocytic leukemia THP-1 Cells (ATCC TIB202) were grown in RPMI 1640 complete media (Gibco Cat# 11875-093), 10% Heat Inactivated FBS (Gibco Cat# 10438026), 2 mM L-Glutamine (Gibco Cat# 25030-081), 10 mM HEPES (Lonza Cat# 17-737E). Cells were cultured to approximately 0.8 × 10^6 cells/mL, centrifuged at 100 x g at 4 °C for 5 min, and resuspended in growth medium at 1.25 × 10^6 cells/mL, and 750 µL were plated in a 24-well format. Compounds were serially diluted in DMSO and individually added to pre-warmed complete media at a 4x concentration. Subsequently, 250 µL was added to their respective well, making it a 1x concentration. Endpoint viability was ≥95%. Each experiment was performed with n = 3 independent experiments. Three datapoints are missing due to blot.
Dose-dependent Degradation was analyzed using ImageJ (NIH, version 1.50i). Densiometric analysis was performed, normalized to DMSO signal, and analyzed using GraphPad Prism (Version 9.0.0 (121)). Non-linear fit one-phase decay analysis was used to obtain DC50 values. When we observed a hook effect, some points were excluded as part of the fit. In Supplementary Fig. 7B the complete curve was fit using GraphPad Prism non-linear regression bell-shaped curve where X is the concentration. However, using this method we were unable to obtain stable values for our DC50. SEM error was plotted for each point. When determining statistically significant differences, we used a two-sided student’s unpaired T-Test.

T1 sequence (Q06187 384-659): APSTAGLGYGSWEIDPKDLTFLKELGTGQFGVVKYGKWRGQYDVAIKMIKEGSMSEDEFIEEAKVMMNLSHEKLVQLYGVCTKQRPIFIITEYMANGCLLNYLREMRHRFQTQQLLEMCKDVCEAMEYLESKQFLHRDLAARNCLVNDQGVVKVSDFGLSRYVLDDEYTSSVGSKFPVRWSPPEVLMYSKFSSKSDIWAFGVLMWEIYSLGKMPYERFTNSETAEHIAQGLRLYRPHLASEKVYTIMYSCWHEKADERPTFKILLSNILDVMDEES
T1 sequence (Q13490 260-618): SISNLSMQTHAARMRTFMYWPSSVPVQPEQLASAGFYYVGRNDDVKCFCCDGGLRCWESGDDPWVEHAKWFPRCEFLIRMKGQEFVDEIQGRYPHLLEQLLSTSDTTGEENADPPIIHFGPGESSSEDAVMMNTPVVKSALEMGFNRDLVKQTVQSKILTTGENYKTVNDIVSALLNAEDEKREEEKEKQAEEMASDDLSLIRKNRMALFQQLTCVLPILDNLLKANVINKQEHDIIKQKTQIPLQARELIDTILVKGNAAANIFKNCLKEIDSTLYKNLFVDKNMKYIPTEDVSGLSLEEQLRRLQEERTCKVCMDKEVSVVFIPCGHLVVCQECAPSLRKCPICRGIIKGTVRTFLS
T3 sequence (Q06187 whole entry): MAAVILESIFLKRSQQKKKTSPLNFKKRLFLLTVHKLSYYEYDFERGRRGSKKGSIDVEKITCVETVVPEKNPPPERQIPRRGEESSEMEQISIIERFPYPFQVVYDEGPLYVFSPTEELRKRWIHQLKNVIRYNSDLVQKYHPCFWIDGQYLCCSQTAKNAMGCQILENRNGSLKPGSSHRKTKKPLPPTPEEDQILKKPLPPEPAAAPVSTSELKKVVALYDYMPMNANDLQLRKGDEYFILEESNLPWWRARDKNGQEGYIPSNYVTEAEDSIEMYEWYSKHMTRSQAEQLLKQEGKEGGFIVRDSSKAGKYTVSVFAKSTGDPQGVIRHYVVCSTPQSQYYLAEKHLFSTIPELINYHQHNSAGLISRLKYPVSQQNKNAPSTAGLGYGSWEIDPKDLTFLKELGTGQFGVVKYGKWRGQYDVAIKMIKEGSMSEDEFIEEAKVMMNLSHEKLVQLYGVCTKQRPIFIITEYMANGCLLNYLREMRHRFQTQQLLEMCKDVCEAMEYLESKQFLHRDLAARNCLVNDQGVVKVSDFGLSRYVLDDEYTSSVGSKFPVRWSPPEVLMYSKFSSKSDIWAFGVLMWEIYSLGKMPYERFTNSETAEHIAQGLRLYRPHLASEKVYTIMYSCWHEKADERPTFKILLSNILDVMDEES
T3 sequence (Q13490 whole entry): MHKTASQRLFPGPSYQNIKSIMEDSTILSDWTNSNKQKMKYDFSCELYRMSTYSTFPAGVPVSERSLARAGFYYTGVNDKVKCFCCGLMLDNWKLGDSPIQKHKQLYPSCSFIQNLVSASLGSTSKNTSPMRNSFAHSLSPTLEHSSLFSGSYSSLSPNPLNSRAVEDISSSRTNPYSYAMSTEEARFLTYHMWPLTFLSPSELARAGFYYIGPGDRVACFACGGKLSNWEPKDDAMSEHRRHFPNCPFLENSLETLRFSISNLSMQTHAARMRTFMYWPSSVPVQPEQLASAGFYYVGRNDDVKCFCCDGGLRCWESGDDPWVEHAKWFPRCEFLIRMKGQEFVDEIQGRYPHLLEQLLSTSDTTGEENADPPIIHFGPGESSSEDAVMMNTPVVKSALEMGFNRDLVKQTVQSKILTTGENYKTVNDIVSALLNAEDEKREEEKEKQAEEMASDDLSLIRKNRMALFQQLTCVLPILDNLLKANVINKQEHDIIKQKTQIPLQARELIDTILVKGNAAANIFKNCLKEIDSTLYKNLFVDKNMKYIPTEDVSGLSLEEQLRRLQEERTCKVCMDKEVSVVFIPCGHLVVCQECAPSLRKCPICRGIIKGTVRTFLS
T2 sequence (Q06187 whole entry, the tested form may be a part): as the sequence (Q06187 whole entry) above
T2 sequence (Q13490 whole entry, the tested form may be a part): as the sequence (Q13490 whole entry) above

| Compound | BTK^FL (WT) blot signal normalized to time 0 (BTK^FL; 0.5 h) | BTK^FL (WT) blot signal normalized to time 0 (BTK^FL; 1 h) | BTK^FL (WT) blot signal normalized to time 0 (BTK^FL; 2 h) | BTK^FL (WT) blot signal normalized to time 0 (BTK^FL; 3.5 h) | BTK^FL (WT) blot signal normalized to time 0 (BTK^FL; 5.5 h) | BTK^FL (WT) blot signal normalized to time 0 (BTK^FL; 7 h) | BTK^FL (WT) blot signal normalized to time 0 (BTK^FL; 17 h) | endogenous BTK blot signal normalized to DMSO (BTK; THP-1, 0.63 uM) | endogenous BTK blot signal normalized to DMSO (BTK; THP-1, 1.25 uM) | endogenous BTK blot signal normalized to DMSO (BTK; THP-1, 2.50 uM) | endogenous BTK blot signal normalized to DMSO (BTK; THP-1, 5.00 uM) | other results |
| --- | --- | --- | --- | --- | --- | --- | --- | --- | --- | --- | --- | --- |
| CNC(C)C(=O)NC(C(=O)N1CC(NC(=O)COCCN2CCN(CC=CC(=O)N3CCCC(n4nc(-c5ccc(Oc6ccccc6)cc5)c5c(N)ncnc54)C3)CC2)CC1C(=O)NC1CCCc2ccccc21)C1CCCCC1 (centres unmarked) [BCCov] | 0.46 and 0.65 and 0.56 | 0.26 and 0.42 and 0.40 | 0.14 and 0.25 and 0.20 | 0.0842 and 0.15 and 0.20 | 0.12 and 0.14 and 0.13 | 0.07 and 0.02 and 0.03 | 0.00 (2×) and 0.02 | 0.18 and 0.24 and 0.08 | 0.13 and 0.23 and 0.0336 | 0.11 and 0.00 and 0.00241 | 0.056 and 0.00 (2×) | Kd [1]: 72.5 nM; cooperativity factor α = Kd binary/Kd ternary ([1]; upper limit): ≤ 0.2; time at which degradation reaches a plateau (BTK^FL; BTK^FL with cIAP1^FL): ≤ 7 h; time at which degradation starts (BTK^FL; BTK^FL with cIAP1^FL): 30 min; endogenous BTK blot signal normalized to DMSO (BTK; THP-1, 0.00488 uM): 1.05 and 0.90 and 1.04; endogenous BTK blot signal normalized to DMSO (BTK; THP-1, 0.01 uM): 1.07 and 1.23 and 0.79; endogenous BTK blot signal normalized to DMSO (BTK; THP-1, 0.02 uM): 0.87 and 1.16 and 0.59; endogenous BTK blot signal normalized to DMSO (BTK; THP-1, 0.04 uM): 0.60 and 1.52 and 0.48; endogenous BTK blot signal normalized to DMSO (BTK; THP-1, 0.08 uM): 0.50 and 0.87 and 0.33; endogenous BTK blot signal normalized to DMSO (BTK; THP-1, 0.16 uM): 0.45 and 0.72 and 0.21; endogenous BTK blot signal normalized to DMSO (BTK; THP-1, 0.31 uM): 0.22 and 0.32 and 0.13 |
| CNC(C)C(=O)NC(C(=O)N1CC(NC(=O)COCCN2CCN(CCCC(=O)N3CCCC(n4nc(-c5ccc(Oc6ccccc6)cc5)c5c(N)ncnc54)C3)CC2)CC1C(=O)NC1CCCc2ccccc21)C1CCCCC1 (centres unmarked) [BCNC] | 0.49 and 0.76 and 0.55 | 0.28 and 0.42 and 0.35 | 0.16 and 0.20 and 0.21 | 0.06 (2×) and 0.10 | 0.056 and 0.10 and 0.08 | 0.00935 and 0.01 and 0.09 | 0.00 and 0.02 (2×) | 0.00 | 0.00 | 0.00 | 0.00 | Kd ([1]; [cIAP1^BUCR1-BCNC] binary complex binding BTK^KD, read-out: Kd, ternary complex): 49.8 nM; endogenous BTK blot signal normalized to DMSO (BTK; THP-1, 0.00488 uM, listed as noncov): 0.97 and 1.25 and 1.03; endogenous BTK blot signal normalized to DMSO (BTK; THP-1, 0.01 uM, listed as noncov): 1.01 and 1.22 and 0.91; endogenous BTK blot signal normalized to DMSO (BTK; THP-1, 0.02 uM, listed as noncov): 1.09 and 1.18 and 0.86; endogenous BTK blot signal normalized to DMSO (BTK; THP-1, 0.04 uM, listed as noncov): 1.06 and 1.18 and 0.70; endogenous BTK blot signal normalized to DMSO (BTK; THP-1, 0.08 uM, listed as noncov): 0.36 and 0.68 and 0.42; endogenous BTK blot signal normalized to DMSO (BTK; THP-1, 0.16 uM, listed as noncov): 0.23 and 0.28 (2×); endogenous BTK blot signal normalized to DMSO (BTK; THP-1, 0.31 uM, listed as noncov): 0.17 and 0.09 and 0.13 |

Source: article PMC9981747, “A covalent BTK ternary complex compatible with targeted protein degradation” (Nature Communications, 2023)
